Results published in patent publication US20220249441A1, “Homodimeric Tobramycin Adjuvant Repurposes Novobiocin as an Effective Antibacterial Agent Against Gram-Negative Bacteria” (priority 2019, published 2022).

How the values were obtained:
[1] = system: E. faecium ATCC 27270; test: MIC and combination against Gram-positive bacteria; type: cell-based
Procedure: (§1) Next, we investigated whether tobramycin by itself would potentiate novobiocin against Gram-negative bacteria.
(§2) Antimicrobial Susceptibility Assay. The in vitro antimicrobial activity of all compounds/antibiotics against a panel of bacteria was evaluated by microbroth dilution method in accordance with the Clinical and Laboratory Standards Institute (CLSI) guidelines (using ATCC strains as quality control strains) (54). Overnight grown bacterial cultures were diluted in saline to achieve a 0.5 McFarland turbidity, followed by 1:50 dilution in Mueller-Hinton broth (MHB) for inoculation to a final concentration of approximately 5×10^5 CFU/mL. […] The lowest concentration that prevented the visible growth of bacteria was defined as the MIC for each antimicrobial agent. The broth with or without bacterial cells was used as positive or negative control, respectively.

[2] = system: MRSE 61589; test: MIC and combination against Gram-positive bacteria; type: cell-based
Procedure: as §1, §2

[3] = system: MRSA ATCC 33592; test: MIC and combination against Gram-positive bacteria; type: cell-based; conditions: MRSA ATCC 33592
Procedure: as §1, §2

[4] = system: E. coli; test: Checkerboard assay (antibiotic + adjuvant combination MIC); type: cell-based, Escherichia coli; conditions: for MIC of Novobiocin +Compound 1: 1 at ≤7.1 μM; for MIC of Novobiocin + adjuvant (7.1 μM): PMBN or 1 at 7.1 μM; for Fold Potentiation: novobiocin + 1 at ≤7.1 μM
Procedure: as §2
(§3) Checkerboard Assay. Combination studies with different antibiotics were performed in 96-well plates as previously described (19). Briefly, the antibiotic of interest was serially diluted in MHB along the abscissa while the adjuvant (tobramycin homodimer) was serially diluted in MHB along the ordinate. This creates a 10×7 matrices wherein each well consists of a combination of different antibiotic and adjuvant concentrations. Overnight grown bacterial cultures were diluted in saline to achieve a 0.5 McFarland turbidity, followed by 1:50 dilution in Mueller-Hinton broth (MHB) for inoculation to a final concentration of approximately 5×10^5 CFU/mL. […] MIC was recorded as wells with the lowest concentration of drugs with no bacterial growth. The fractional inhibitory concentration (FIC) for each antibiotic was calculated by dividing the MIC of the antibiotic in the presence of adjuvant by the MIC of the antibiotic alone. Similarly, the FIC of adjuvant was calculated by dividing the MIC of the adjuvant in the presence of antibiotic by the MIC of the adjuvant alone. FIC index is the sum of both FICs. FIC indices of ≤0.5 were deemed synergistic; >0.5-4, no interaction; and >4, antagonistic.

[5] = system: A. baumannii ATCC 17978; test: microbe, parasite or virus in culture; type: cell-based, Acinetobacter baumannii; conditions: seven serial passages
Procedure: Development of Resistance Study. […] Tobramycin and colistin were included as controls. At 24-hour intervals, the cultures were assessed for growth. […] This serial passaging was repeated for 8 days.

[6] = system: P. aeruginosa; test: Checkerboard assay (antibiotic + adjuvant combination MIC); type: cell-based, Pseudomonas aeruginosa; conditions: for MIC of Novobiocin +Compound 1: 1 at ≤7.1 μM; for MIC of Novobiocin + adjuvant (7.1 μM): PMBN or 1 at 7.1 μM
[7] = system: E. cloacae; test: as above; type: cell-based, Enterobacter cloacae; conditions: for MIC of Novobiocin +Compound 1: 1 at ≤7.1 μM; for Fold Potentiation: novobiocin + 1 at ≤7.1 μM
Procedure: as §2, §3

[8] = system: MDR A. baumannii; test: Galleria mellonella in vivo larvae-infection model; conditions: single dose 100 mg/kg, agent alone; after 24 h
Procedure: Galleria mellonella In vivo Larvae-Infection Model. In vivo synergistic effects were determined using Galleria mellonella infection model, as previously described (49). Briefly, larvae were purchased from The Worm Lady Live Feeder (ON, Canada), stored in their natural habitat at 16° C., and used within 10 days of delivery. The larvae (average weight of 250 mg) were used for tolerability and efficacy studies. Tolerability study was performed by injecting a 10 μL aliquot of antimicrobial agents only at concentrations equivalent to 100 mg/kg or 200 mg/kg. The larvae (ten in each group) were incubated at 37° C. and monitored for 96 h. For efficacy studies, the virulence and bacterial load required to kill 100% of the larvae within 24 h (with no treatment) was first determined, which is approximately 10 CFU. Overnight grown culture of respective MDR A. baumannii isolate was standardized to 0.5 McFarland standard and diluted in PBS to a final concentration of 10^3 CFU/mL. A 10 μL aliquot of this solution (˜10 CFU) was injected into each larva and incubated for 3 h at 37° C. […] Larvae treated with 10 μL of PBS or high concentrations of test antibiotics served as negative and positive control, respectively. The larvae were incubated at 37° C. in Petri dishes lined with filter paper and scored for survivability every 6 h for up to 36 h. […]

[9] = system: K. pneumoniae; test: Checkerboard assay (antibiotic + adjuvant combination MIC); type: cell-based, Klebsiella pneumoniae; conditions: for MIC of Novobiocin +Compound 1: 1 at ≤7.1 μM; for Fold Potentiation: novobiocin + 1 at ≤7.1 μM
Procedure: as §2, §3

[10] = system: A. baumannii; test: as above; type: cell-based, Acinetobacter baumannii; conditions: for MIC of Novobiocin +Compound 1: 1 at ≤7.1 μM; for Fold Potentiation: novobiocin + 1 at ≤7.1 μM
Procedure: as §2, §3

## NC[C@H]1O[C@H](O[C@H]2[C@H](OCCCCc3cn(CCCCO[C@@H]4[C@@H](O[C@H]5O[C@H](CO)[C@@H](O)[C@H](N)[C@H]5O)[C@H](N)C[C@H](N)[C@H]4O[C@H]4O[C@H](CN)[C@@H](O)C[C@H]4N)nn3)[C@@H](O[C@H]3O[C@H](CO)[C@@H](O)[C@H](N)[C@H]3O)[C@H](N)C[C@@H]2N)[C@H](N)C[C@@H]1O.O=C(O)C(F)(F)F.O=C(O)C(F)(F)F.O=C(O)C(F)(F)F.O=C(O)C(F)(F)F.O=C(O)C(F)(F)F.O=C(O)C(F)(F)F.O=C(O)C(F)(F)F.O=C(O)C(F)(F)F.O=C(O)C(F)(F)F.O=C(O)C(F)(F)F [Compound 1, Tobramycin Homodimer 1]
[1]
  effect of addition of compound 1 on activity of novobiocin: did not improve
[2]
  effect of addition of compound 1 on activity of novobiocin: did not improve
[3]
  effect of addition of compound 1 on activity of novobiocin: did not improve
[4]; E. coli 94393
  MIC of Novobiocin +Compound 1: 2 µg/mL
  MIC of Novobiocin + adjuvant (7.1 μM): 2 µg/mL
  Fold Potentiation: 64 fold
[4]; E. coli 94474
  MIC of Novobiocin +Compound 1: 16 µg/mL
  MIC of Novobiocin + adjuvant (7.1 μM): 16 µg/mL
  Fold Potentiation: 16 fold
[4]; E. coli 107115
  MIC of Novobiocin +Compound 1: 8 µg/mL
  Fold Potentiation: 16 fold
[4]; E. coli ATCC 25922
  MIC of Novobiocin +Compound 1: 2 µg/mL
  Fold Potentiation: 32 fold
[5]
  resistance phenotype after exposure to sub-MIC levels: did not generate tobramycin-resistant phenotype
[6]; P. aeruginosa 259-96918
  MIC of Novobiocin +Compound 1: 8 µg/mL
[6]; P. aeruginosa 260-97103
  MIC of Novobiocin +Compound 1: 1 µg/mL
[6]; P. aeruginosa 262-101856
  MIC of Novobiocin +Compound 1: 8 µg/mL
[6]; P. aeruginosa 264-104354
  MIC of Novobiocin +Compound 1: 8 µg/mL
[6]; P. aeruginosa 91433
  MIC of Novobiocin +Compound 1: 1 µg/mL
[6]; P. aeruginosa 100036
  MIC of Novobiocin +Compound 1: 8 µg/mL
[6]; P. aeruginosa 101243
  MIC of Novobiocin +Compound 1: 1 µg/mL
[6]; P. aeruginosa 101885
  MIC of Novobiocin +Compound 1: 8 µg/mL
[6]; P. aeruginosa 114228
  MIC of Novobiocin +Compound 1: 16 µg/mL
[6]; P. aeruginosa PAO1
  MIC of Novobiocin +Compound 1: 4 µg/mL
[6]; PA 91433
  MIC of Novobiocin + adjuvant (7.1 μM): 1 µg/mL
[6]; PA 101243
  MIC of Novobiocin + adjuvant (7.1 μM): 1 µg/mL
[6]; PA 114228
  MIC of Novobiocin + adjuvant (7.1 μM): 16 µg/mL
[6]; PAO1 (wild-type)
  MIC of Novobiocin +7.1 μM Compound 1: 4 µg/mL
[6]; PAO1
  MIC of Novobiocin + adjuvant (7.1 μM): 4 µg/mL
[6]; PAO200 (efflux-deficient)
  MIC of Novobiocin +7.1 μM Compound 1: 0.125 µg/mL
[6]; PAO750 (efflux-deficient)
  MIC of Novobiocin +7.1 μM Compound 1: 0.125 µg/mL
[7]; E. cloacae 117029
  MIC of Novobiocin +Compound 1: 8 µg/mL
  Fold Potentiation: 128 fold
[7]; E. cloacae 118568
  MIC of Novobiocin +Compound 1: 32 µg/mL
  Fold Potentiation: 32 fold
[7]; E. cloacae 121187
  MIC of Novobiocin +Compound 1: 8 µg/mL
  Fold Potentiation: 8 fold
[7]; EC 118568, PMBN or 1 at 7.1 μM
  MIC of Novobiocin + adjuvant (7.1 μM): 32 µg/mL
[8]
  mortality of infected larvae: 100%
[9]; K. pneumoniae 113250
  MIC of Novobiocin +Compound 1: 16 µg/mL
  Fold Potentiation: 32 fold
[9]; K. pneumoniae 113254
  MIC of Novobiocin +Compound 1: 16 µg/mL
  Fold Potentiation: 16 fold
[9]; K. pneumoniae 116381
  MIC of Novobiocin +Compound 1: 8 µg/mL
  Fold Potentiation: 128 fold
[9]; KP 113254, PMBN or 1 at 7.1 μM
  MIC of Novobiocin + adjuvant (7.1 μM): 16 µg/mL
[10]; A. baumannii 027
  MIC of Novobiocin +Compound 1: 0.5 µg/mL
  Fold Potentiation: 16 fold
[10]; A. baumannii 031
  MIC of Novobiocin +Compound 1: 0.5 µg/mL
  Fold Potentiation: 16 fold
[10]; A. baumannii 92247
  MIC of Novobiocin +Compound 1: 0.25 µg/mL
  Fold Potentiation: 16 fold
[10]; A. baumannii 110193
  MIC of Novobiocin +Compound 1: 1 µg/mL
  Fold Potentiation: 256 fold
[10]; A. baumannii ATCC 17978
  MIC of Novobiocin +Compound 1: 0.5 µg/mL
  Fold Potentiation: 32 fold
[10]; A. baumannii LAC-4
  MIC of Novobiocin +Compound 1: 0.5 µg/mL
  Fold Potentiation: 16 fold
[10]; AB 92247, PMBN or 1 at 7.1 μM
  MIC of Novobiocin + adjuvant (7.1 μM): 0.25 µg/mL
[10]; colistin-resistant mutant B of A. baumannii ATCC 17978
  potentiation of novobiocin: did not potentiate
[10]; novobiocin-resistant mutant A of A. baumannii ATCC 17978
  fold potentiation of novobiocin: 16 fold
[10]; wild-type and MDR A. baumannii clinical isolates, ≤7.1 μM of compound 1
  MIC of novobiocin in the presence of compound 1: ≤ 1 µg/mL
